These results are taken from US11059815B2, “Synthesis of small molecule histone deacetylase 6 degraders, compounds formed thereby, and pharmaceutical compositions containing them” (Wisconsin Alumni Research Foundation, priority 2018, dated 2021).

SMILES strings stand for the structures.

The subject of one experiment is acetylated tubulin. As to the kind of experiment: Western blot of acetylated tubulin in MM1S cells. The experiment is classed as cell-based, human. As to conditions: 100 nM. The source says:
(§1) FIGS. 12A, 12B, and 12C are a series of western blots showing that degrader 12d selectively promotes HDAC6 degradation in MM1S cells.
(§2) To further examine the selectivity of the new generation of HDAC6 degraders, compound 12d was compared to SAHA, Next-A, degrader 1 and pan-inhibitor 2 for change of acetylated a-tubulin and acetylated histone H3.
(§3) When the cells reached 90% confluence, they were harvested and plated 1×10^6 cells per well in 6-well plate. After overnight seeding, the cells were treated with a solution of compounds or vehicle in culture medium. The culture medium was removed after treatment and then washed twice with cold PBS. To obtain whole cell lysate, all cells were treated with RIPA lysis buffer (25 mM Tris, pH 7-8, 150 mM NaCl, 0.1% SDS, 0.5% sodium deoxycholate, 1% Triton X-100, protease inhibitor cocktail (Roche, 1 tablet per 10 mL) and 1 mM PMSF) on ice for 10 minutes. Supernatant was collected after spinning down at 16,000 g at 4° C. for 15 minutes. Protein concentration was measured by using the Pierce BCA protein assay (Thermo Fisher Scientific). About 10-40 μg of total protein was mixed with 4× Laemmli Loading Dye (250 mM Tris, pH 6.8, 40% glycerol, 5% SDS, 0.005% bromophenol blue, 4% BME) and heated at 95-100° C. for 5 minutes. The heated sample was then subjected to 7.5-12% SDS-PAGE and transferred to PVDF membrane (Bio-Rad,). The membrane was blocked in 5% non-fat milk (Bio-rad) in TBS-T washing buffer (137 mM NaCl, 20 mM Tris, 0.1% Tween) and then incubated with primary antibodies at 4° C. overnight. […] The Immunoblot was generated by ChemiDoc MP Imaging Systems (Bio-Rad) and analyzed by Image J software (only available for download online at https://imagej.net/Downloads). […]
The activity of all eleven “n+4” VHL-based potential degraders to suppress HDAC6 expression was tested at 100 nM and compared to CRBN degrader 2 in MM1S cells. The resulting cells were analyzed for HDAC6 expression by in-cell ELISA (FIG. 15). […]

The next experiment has as its system acetylated histone H3. The experiment can be described thus: Western blot of acetylated histone H3 in MM1S cells. The format is cell-based, human.
Source text: as §1, §2
as §3, with “Scientific).” for “Scientific). About 10-40 μg of total protein was mixed with 4× Laemmli Loading Dye (250 mM Tris, pH 6.8, 40% glycerol, 5% SDS, 0.005% bromophenol blue, 4% BME) and heated at 95-100° C. for 5 minutes. The heated sample was then subjected to 7.5-12% SDS-PAGE and transferred to PVDF membrane (Bio-Rad,). The membrane was blocked in 5% non-fat milk (Bio-rad) in TBS-T washing buffer (137 mM NaCl, 20 mM Tris, 0.1% Tween) and then incubated with primary antibodies at 4° C. overnight.”
(Immunoblotting shows a protein as a band on a membrane.)

Regarding `O=C(CCCCCCC(=O)Nc1ccccc1)NO` [SAHA, Suberoylanilide hydroxamic acid, reference compound], the “change of acetylated tubulin” value in the experiment on acetylated tubulin was “didn't”. In the experiment with acetylated histone H3, the “change of acetylated histone H3” value was “strong acetylated histone H3 signal”.
